What was measured:
DIO mice [1] = test: Food, kaolin and water intake in DIO mice; format: in vivo, mouse; settings: 50 mg/kg IP, single; 18 h
Protocol: Kaolin and water intake assays. DIO mice were individually housed and allowed ad libitum access to kaolin pellets for 5 days before the start of the experiment. Mice were also provided high-fat diet and had ad libitum access to water. On the day of the experiment, kaolin and high-fat diet pellets were replaced with fresh pellets. Mice were then injected with either vehicle or BHB-Phe (50 mg/kg, IP), and high-fat diet, kaolin and water intake were measured after 18 h.

[2] = Acute administration in DIO mice in home cages: food intake and plasma BHB-Phe; format: in vivo, mouse; settings: mouse, plasma; 50 mg/kg IP, single; read-out: time of peak plasma level
Protocol: (§1) General animal information. Animal experiments were performed according to procedure approved by the Stanford University Administrative Panel on Laboratory Animal Care (APLAC). Mice were maintained in 12-hr light-dark cycles at 22° C. and ~50% relative humidity and fed a standard irradiated rodent chow diet. Where indicated, high-fat diet (D12492, Research Diets 60% kcal from fat) and ketogenic diet (D06040601, Research Diets, 80% kcal fat/15% kcal protein/5% kcal carbohydrate) was used. Male C57BL/6J (stock no. 000664) and male C57BL/6J DIO mice (stock no. 380050) were purchased from Jackson Laboratory. Male C57BL/6NCrl (stock no. 027) mice were purchased from Charles River Laboratory. Whole body CNDP2-KO mice (catalog number, C57BL/6NCrl-Cndp2em1 (IMPC) Mbp/Mmucd, RRID: MMRRC_043492-UCD) were obtained from the Mutant Mouse Regional Resource Center, a NCRR-NIH funded strain repository. For in vivo injection of mice with metabolites, compounds were dissolved in 18:1:1 (by volume) of saline/Kolliphor EL (Sigma Aldrich)/DMSO. Compounds were administered to mice daily via intraperitoneal injections at 5 μl/g body weight at the indicated doses. For all injection experiments, mice were mock injected with the vehicle for 3-5 days until body weights have stabilized. Sample sizes were determined on the basis of previous experiments using similar methodologies. For metabolite administration experiments, mice were randomly assigned to treatment groups. Experimenters were not blinded to groups.
(§2) Preparation of plasma samples for LC-MS analysis. Plasma was collected from mice via a submandibular bleed into lithium heparin tubes (BD, 365985) and immediately transferred onto ice. […]
(§3) Targeted metabolomics. […] Quantification of the endogenous metabolite concentrations were performed by generating a standard curve with known concentrations of each metabolite. Metabolite standards were analyzed alongside the plasma samples using the same targeted triple quadrupole LC/MS method. […] The dilution of the plasma during the sample preparation was also taken into account for the quantification.

DIO mice [3] = test: as above; format: in vivo, mouse; settings: 50 mg/kg IP
Protocol: as §1, §2, §3

[4] = Metabolite quantitation in mouse plasma (QQQ-LC/MS); format: in vivo
Protocol: Preparation of plasma samples for LC-MS analysis. Plasma was collected from mice via a submandibular bleed into lithium heparin tubes (BD, 365985) and immediately transferred onto ice. The blood was centrifuged at 4° C. at 5000 rpm for 5 min and the top layer of plasma was aliquoted and frozen at −80 °C. To extract polar metabolites from plasma for LC-MS analysis, 150 μl of a 2:1 mixture of acetonitrile/methanol was added to 50 μl of plasma. The mixture was centrifuged at 4° C. for 10 min at 15,000 rpm and the supernatant was transferred to a LC-MS vial.
Targeted metabolomics. Targeted measurements were performed using an Agilent 6470 triple quadrupole LC-MS instrument. MS analysis was performed using AJS in negative mode. The AJS source parameters were set as follows: the dry gas temperature was set at 250° C. with a gas flow of 12 l/min and the nebulizer pressure at 25 psi; the sheath gas temperature was set to 300° C. with the sheath gas flow set at 12 l/min; and the capillary voltage was set to 3,500 V. Separation of polar metabolites was performed as described above in the ‘Untargeted measurements of metabolites by LC-MS’ section. Multiple reaction monitoring was performed for the indicated metabolites with the listed dwell times, fragmentor voltage, collision energies, cell accelerator voltages and polarities. Quantification of the endogenous metabolite concentrations were performed by generating a standard curve with known concentrations of each metabolite. Metabolite standards were analyzed alongside the plasma samples using the same targeted triple quadrupole LC/MS method. A calibration standard curve generated from the metabolite standard concentrations and total peak areas were used to calculate the concentrations of each endogenous metabolite. The dilution of the plasma during the sample preparation was also taken into account for the quantification.

Structure (SMILES): CC(O)CC(=O)N[C@@H](Cc1ccccc1)C(=O)O (stereo partly drawn) [BHB-Phe, N-betahydroxybutyryl-phenylalanine]
- food intake (kaolin/water experiment) (DIO mice [1]): suppressed food intake
- kaolin consumption (DIO mice [1]): without affecting water intake or kaolin consumption
- water intake (DIO mice [1]): without affecting water intake
- Tmax [2]: 1 h
- time to return of plasma level to largely baseline values (DIO mice [3]; single): ≤ 3 h
- food intake after single administration (home cages) (DIO mice [3]; 3 h and 1 h): suppressed food intake at a 3 h, but not 1 h time point
- effect of acute treadmill running on level ([4]; 15 min running): unchanged
- elevation after ketone ester administration ([4]; 30 min after ketone drink, 3 mg/g): > 10 fold
- effect of strenuous and prolonged exercise on level ([4]; 30 min strenuous running): robust co-induction

— patent US20260325473A1, “N-Beta-Hydroxybutyryl-Amino Acids and Related Compositions and Methods” (The Board of Trustees of the Leland Stanford Junior …, priority 2023, published 2026)
